Earlier results on one compound are cited in patent publication US9169245B2, “Inhibitors of PDE4 enzyme and antagonists of muscarinic M3 receptor” (CHIESI FARMACEUTICI S.p.A., priority 2012, dated 2015).

For data set [1] the following is noted: patients with severe disease, frequent exacerbations and mucus hypersecretion.
The conditions of data set [2]: COPD patients, oral, given over 4 weeks.

As for `O=C(Nc1c(Cl)cncc1Cl)c1ccc(OC(F)F)c(OCC2CC2)c1` [roflumilast], in data set [1], the “improvement of FEV 1” value is listed as “approximately 50 ml” and the reduction of exacerbation entry was “about 15%”. In addition, the “reduction of the numbers of neutrophils in sputum” value in data set [2] was 36%.
